Values of other authors, collected in patent US20240261294A1, “METHOD FOR TREATING IDH INHIBITOR-RESISTANT SUBJECTS” (Eli Lilly and Company, priority 2021, published 2024).

Tested on: IDH2-Q316E and IDH2-1319M
Conditions: preclinical studies; cited from earlier work

In the case of `CC(C)(O)CNc1nc(Nc2ccnc(C(F)(F)F)c2)nc(-c2cccc(C(F)(F)F)n2)n1` [enasidenib], the “binding and inhibition of the mutant enzymes” value is listed as “no longer able to bind and inhibit the mutant enzymes”.
